{
  "source": "patent EP1024807B1",
  "about": "“USE OF THE COMPOUND 2-METHOXYPHENYL-1-METHYL-5P-METHYLBENZOYL-PYRROL-2-ACETAMIDO ACETATE FOR THE PRODUCTION OF AN ANTI-INFLAMMATORY DRUG WITH PREVENTION OF GASTRIC HYPERSECRETION AND RENAL IMPAIRMENT” (MEDOSAN Ricerca S.r.l., priority 1997, dated 1999)",
  "key": {"gastric PGE2": {"system": "gastric PGE2", "experiment": "Effect on gastric PGE2 in the rat", "type": "in vivo", "from_the_text": "Moreover, as with all the NSAIDs currently aveilable, it inhibits gastric PGE2 in the rat, albeit to a lesser degree than ASA (Table 7)."}, "[1]": {"system": "post-traumatic arthralgia", "experiment": "Clinical comparison in post-traumatic arthralgia", "type": "in vivo, man", "from_the_text": "The same can be said in the treatment of post-traumatic arthralgia."}, "Rats [2]": {"system": "Rats", "experiment": "Diuresis in normally hydrated rats", "type": "in vivo", "experimental": "In the course of various studies conducted on animals to show the lack of renal impairment, a test was carried out to compare the diuresis in normally hydrated rats treated orally for 8 consecutive days with amtolmeting guacyl and diclofenac, which is also a NSAID. […] It is to be stressed that the behaviour of diclofenac is completely in line with the behaviour of a NSAID as known in the art, that is to say to markedly reduce the diuresis, while that of amtolmeting guacyl is completely unforeseeable.\nRepeated doses (one per day) for 8 days increased diuresis in the treated rats by 35% (see fig. 13)."}, "patients [3]": {"system": "patients", "conditions": "336 patients, Diclofenac 100mg, cited from earlier work; for Suspensions of treatment: number of patients, 180 days of treatment; for % of totale: suspensions of treatment, 180 days"}, "patients [4]": {"system": "patients", "experiment": "Clinical trials: tolerability, adverse events and suspensions of treatment", "type": "in vivo, man", "conditions": "31 comparative and 6 non-comparative clinical trials, 1596 patients", "from_the_text": "Interest in the amtolmetin guacyl molecule arose following a thorough analysis of the results of 31 comparative and 6 non-comparative clinical trials involving 1596 patients. […] Turthermore the physician, being aware of administering an NSAID, was expecting adverse events and could not be expected to be an impartial observer. The few cases of gastro-intestinal phenomena reported with amtolmetin guacyl were transitory and in no event accompanied by the presence of occult blood in the stools. Moreover, even in the presence of a reported side-effect it was almost never necessary to suspend treatment (0.4% of suspensions).\nFollowing are summarized the results obtained on a total of 1596 patients in 37 clinical trials.\nConfirmation of the above described advantages is the very low incidence of treatment suspension for adverse events found in clinics (Table 17), which is not the case for most of NSAIDs known in the art (Table 18)."}, "Rats [5]": {"system": "Rats", "experiment": "Carrageenan pleurisy, exudate volume at 4 hours", "type": "in vivo", "experimental": "Compounds were administered orally 1 hour prior to and 1 hour post pleurisy induction in a volume of 0.5 ml 1% gum tragacanth. Indomethacin was used at 3 mg/kg. MED 15 was used at 25, 50 and 100 mg/kg.\nA 1% solution of carrageenan in sterile saline was prepared. The solution was placed in an incubator at 37°C for half an hour to allow complete hydration of the carrageenan. The solution was then mixed to homogeneity.\nA 21Gx40mm syringe needle was reduced in length to 5mm and fitted to a 1ml syringe containing the irritant. Rats were lightly anaesthetised with halothane. Each animal was placed on its left side. The skin over the thorax was lifted with and a 1cm incision made through the skin with a pair of scissors. The wound was opened to expose the underlying muscle. Using a scalpel, a 2-3mm incision was made into the muscle of the 5th-6th intercostal space. A volume of 0.15ml of carrageenan solution was then injected into the pleural cavity. The wound was closed with a 11mm Michel clip and the animal allowed to recover from the anaesthetic. Groups of animals were killed 4 hours after pleurisy induction.\nLavage solution: One part of 3.15% trisodium citrate solution, mixed with nine parts of Hank's balanced salt solution.\nRats were killed by over exposure to carbon dioxide. For each rat the skin over the thorax was moistened with IMS alcohol. The skin over the sternum was then lifted and a 5cm cut made, to expose the musculature of the upper abdomen and thoracic cavity. The muscle overlying the xiphisternum was lifted with tissue forceps and a 1cm cut made through the muscle to reveal the cartilage. This was then lifted and the diaphragm perforated just beneath the cartilage. Two cuts were then made through the rib cage either side of the cartilage to form a flap which could be folded back to expose the thoracic cavity.\nUsing a syringe, 1ml of lavage fluid was introduced into the thoracic cavity. The fluid was aspirated 2-3 times with a 3ml pastette to wash the cavity, before being collected into separate 10ml conical-based plastic test-tubes. Any blood contaminated fluids were rejected.\nThe mass of each tube with fluid was determined. By subtracting the mass of an empty tube from these values, and assuming a density for the fluid of 1g/cm^3, the fluid volume was quantified.\nResults were analysed by ANOVA followed by Bonferroni T-test. Values of p<0.05 were considered significant.\nDosing was one hour prior to and one hour post pleurisy induction and inflammation was assessed at 4 hours."}, "Rats [6]": {"system": "Rats", "experiment": "Adjuvant arthritis (joint diameter and patellar bone mass)", "type": "in vivo", "conditions": "for % Change: ([left-right]/right)X100", "experimental": "The drugs were administered daily by oral gavage for 4 days (day 0-3); piroxicam and MED 15 were dissolved in 5% Gum arabic + 0.01% Tween 80, and administered in a volume of 0.5ml. Piroxicam was administered as 3mg/kg and MED 15 was administered as 25, 50 and 100mg/kg doses. Table 8 bis illustrating dosage regimes. L=left stifle joint, R=Right stifle joint.\nUnder halothane anaesthesia, rats received 200µg of heat-killed finely ground Mycobactyerium tubercolosis in 25µl (80mg/10ml sterile saline) injected intra-articulary into the left stifle joint. The contralateral joint received 25µl 0.9% sterile saline. Control animals received 25µl of 0.9% sterile saline in both knees. SGE 50µl microsyringes with a volume lock calibrated at 25µl were used with 30G stainless steel needles. Solutions were prepared sterile, and aseptic technique was used throughout, with sterilisation of syringes between groups.\nThe rats were killed by carbon dioxide suffocation. The body weight was noted and the skin overlying the stifle joints was divided and the joint diameters assessed in mm using Mitutoyo vernier callipers (530-312, 0.02mm).\nThe patellae were dissected, weighed (Sartorius, 0.01mg) and then immersed in 1ml digestion buffer (see below) to remove soft tissue.\nDigestive buffer was prepared fresh to the following formula; disodium hydrogen orthophosphate 20mM, EDTA 1mM and diothiothreitol at 2mM. Papain (EC 3.4.22.2) was added at a concentration of 6U/ml. Each patella was digested in 1ml of digestive buffer at 56°C for 4 hours. The residual paterllar bones were dried (100°C 24 hours) and weighed (Sartorius 0.01mg).\nResults are presented as follows: left and right parameter alone, the difference between arthritic and contralateral control joint (left-right); and % difference between arthritic and control joints ([left-right]/right]X100).\nCalculations were carried out using the spreadsheet program Lotus 123. Statistical comparisons were made between the absolute differences using INSTAT Mann Whitney unpaired two-tailed statistical test."}},
  "data": [
    {"smiles": "CC(=O)Oc1ccccc1C(=O)O", "note": "[ASA, acetyl salicylic acid, reference compound]", "values": [
      {"measurement": "%inhibition", "setting": "gastric PGE2; gastric PGE2 versus controls", "value": 86.7, "unit": "%"},
      {"measurement": "PGE2 (ngtg^Δ tissue)±S.E.", "setting": "gastric PGE2; gastric tissue, rat, controls 108.7±23.9", "value": "14.4±4.5 nanograms for gram of tissue"}
    ]},
    {"smiles": "O=C(O)Cc1ccccc1Nc1c(Cl)cccc1Cl", "note": "[Diclofenac, reference compound]", "values": [
      {"measurement": "duration of effect", "setting": "[1]", "value": 3, "unit": "h"},
      {"measurement": "latency time", "setting": "[1]", "value": 20, "unit": "min"},
      {"measurement": "time to reach peak effect", "setting": "[1]", "value": 1, "unit": "h"},
      {"measurement": "decreased diuresis", "setting": "Rats [2]; single dose, average", "value": 10, "unit": "%"},
      {"measurement": "diuresis", "setting": "Rats [2]; treated orally for 8 consecutive days, fig. 13", "value": "clear decrease"},
      {"measurement": "Suspensions of treatment", "setting": "patients [3]", "value": 63},
      {"measurement": "% of totale", "setting": "patients [3]", "value": "18,7%"}
    ]},
    {"smiles": "COc1ccc2c(c1)c(CC(=O)O)c(C)n2C(=O)c1ccc(Cl)cc1", "note": "[Indomethacin, reference compound]", "values": [
      {"measurement": "incidence of adverse events involving the stomach", "setting": "patients [4]", "value": "≥ 30", "unit": "%"},
      {"measurement": "Exudate volume", "setting": "Rats [5]; 3mg/kg orally 1 hour prior to and 1 hour post induction, 4 hour, control 0.94±0.04", "value": "0.47 ± 0.11", "unit": "mL"},
      {"measurement": "reduction in exudate volume", "setting": "Rats [5]; 3mg/kg, compared to gum tragacanth control", "value": 50, "unit": "%"}
    ]},
    {"smiles": "Cc1cnc(NC(=O)C2=C(O)c3ccccc3S(=O)(=O)N2C)s1", "note": "[Meloxicam]", "values": [
      {"measurement": "Suspensions of treatment", "setting": "patients [3]", "value": 42},
      {"measurement": "% of totale", "setting": "patients [3]", "value": "12,4%"}
    ]},
    {"smiles": "CN1C(C(=O)Nc2ccccn2)=C(O)c2ccccc2S1(=O)=O", "note": "[Piroxicam, reference compound]", "values": [
      {"measurement": "Swelling Diameter difference (L-R)", "setting": "Rats [6]; 3mg/kg daily oral, day 0-3", "value": 1.67, "unit": "mm"},
      {"measurement": "Joint diameter (mm) Left", "setting": "Rats [6]; 3mg/kg daily oral, day 0-3, left = arthritic joint", "value": 10.41, "unit": "mm"},
      {"measurement": "Joint diameter (mm) Right", "setting": "Rats [6]; 3mg/kg daily oral, day 0-3, right = saline control joint", "value": 8.74, "unit": "mm"},
      {"measurement": "% Change", "setting": "Rats [6]; joint diameter, 3mg/kg daily oral", "value": 19.15, "unit": "%"},
      {"measurement": "% Change", "setting": "Rats [6]; patellar bone mass, 3mg/kg daily oral", "value": -27.74, "unit": "%"},
      {"measurement": "protection against bone loss", "setting": "Rats [6]; patellar bone mass, arthritic groups", "value": "greatest protection against bone loss"},
      {"measurement": "Bone loss Left-Right", "setting": "Rats [6]; patellar bone, 3mg/kg daily oral", "value": -1.31, "unit": "mg"},
      {"measurement": "Bone mass (mg) Left", "setting": "Rats [6]; patellar bone, 3mg/kg daily oral, left = arthritic joint", "value": 3.07, "unit": "mg"},
      {"measurement": "Bone mass (mg) Right", "setting": "Rats [6]; patellar bone, 3mg/kg daily oral, right = saline control joint", "value": 4.21, "unit": "mg"}
    ]}
  ]
}
